The source of these data is article PMC12588090, “C6-Alkoxy substituted penicillins are potent non-covalently binding inhibitors of the SARS-CoV-2 main protease” (RSC Medicinal Chemistry, 2025).

Structures are written as SMILES. “And” between values parts separate entries of the source, which are not always exact repeats. Equal entries are not always repeated. “Also recorded” adds a separate entry of the source. Where two headings read alike, the source gives them in different places. Where only a bound is given, the exact number is not on record here.

For orientation: IC50 means the concentration at which inhibition is half-maximal.

The target in test [1] is T1, SARS-CoV-2 M^pro (Severe acute respiratory syndrome coronavirus 2, UniProt P0DTD1). As to the kind of experiment: SPE-MS M^pro inhibition assay. The class given is biochemical. Particulars: for increase in M^pro inhibition potency compared to (S)-sulfoxide 22: ratio of IC50 values.
In test [2] the target is T1, SARS-CoV-2 M^pro. The class given is binding. Particulars: for covalent reaction with / modification of M^pro / species with mass shifts corresponding to potential acyl–enzyme complexes: β-lactam 15 μM; for covalent reaction with / modification of M^pro: M^pro 3.0 μM (5 : 1), denaturing MS, 20 mM HEPES pH 7.5; for covalent reaction with / modification of M^pro / mass shift of concentration-dependent M^pro adduct / species with mass shifts corresponding to potential acyl–enzyme complexes: >15 h incubation; for mass shift of concentration-dependent M^pro adduct: intensity rises with penicillin derivative : M^pro ratio; for species with mass shifts corresponding to potential acyl–enzyme complexes: M^pro 3.0 μM.

Test [3] deals with T1, SARS-CoV-2 M^pro. Particulars: read-out: IC50 (reported) (converted), cited from earlier work.
The test system of test [4] is human leukocyte elastase (HLE). The arrangement: method as in doi:10.1016/S0960-894X(01)80940-9. Particulars: cited from earlier work.
The mark [5] stands for this setting: SPE-MS, M^pro 0.05 μM, substrate 2.0 μM, n = 3, mean ± SD, freshly prepared DMSO stocks for 8, read-out: IC50.
Setting [6] is: SPE-MS, M^pro 0.05 μM, substrate 2.0 μM, n = 3, mean ± SD, freshly prepared DMSO stocks for 8.
[7] abbreviates: literature value given in Table 1.
Setting [8] is: IC50, SPE-MS, M^pro 0.05 μM, substrate 2.0 μM, n = 3, mean ± SD, freshly prepared DMSO stocks for 8.

Regarding `CC(C)O[C@H]1C(=O)N2[C@@H](C(=O)OCc3ccccc3)C(C)(C)S(=O)(=O)[C@H]12` [27c], the IC50 at SARS-CoV-2 M^pro [1] (setting [5]) came to 19 ± 14 µM.
For the compound `CO[C@@]1(NC(=O)COc2ccccc2)C(=O)N2[C@@H](C(=O)OCc3ccccc3)C(C)(C)S[C@@H]21` [compound 8], the IC50 entry at SARS-CoV-2 M^pro [1] (setting [6]) is “no inhibition in the tested concentration range”; on SARS-CoV-2 M^pro [1] (setting [5]), over 50 µM; on SARS-CoV-2 M^pro [1] (additional replicates using premade DMSO stock solutions, read-out: IC50) it was about 5 µM.
Take `CC1(C)C(C(=O)OCc2ccccc2)N2C(=O)C(Oc3ccccc3)C2S1(=O)=O` (stereo not shown) [27e]: on SARS-CoV-2 M^pro [1] (setting [5]), the IC50 was over 50 µM.
As for `CO[C@@]1(NC(=O)Cc2ccccc2)C(=O)N2[C@@H](C(=O)OCc3ccccc3)C(C)(C)[S+]([O-])[C@@H]21` (stereo partly shown) [compound 22], at SARS-CoV-2 M^pro [1] (setting [5]), the IC50 was ~7.3 µM and 7.3 µM. Further, at SARS-CoV-2 M^pro [2], the “covalent reaction with / modification of M^pro” value is recorded as “no evidence for covalent M^pro modification”.
For `CO[C@@]1(NC(=O)Cc2ccccc2)C(=O)N2[C@@H](C(=O)OCc3ccccc3)C(C)(C)[S@@+]([O-])[C@@H]21` [compound 3, C6-methoxy (R)-sulfoxide penicillin G benzyl ester], the IC50 on SARS-CoV-2 M^pro [1] (setting [5]) is ~0.8 µM and 0.8 µM. For the same compound, at SARS-CoV-2 M^pro [1], the “increase in M^pro inhibition potency compared to (S)-sulfoxide 22” value is recorded as about 9 fold. Further, at SARS-CoV-2 M^pro [2], the “mass shift of concentration-dependent M^pro adduct” value is “+32 Da”, the “covalent reaction with / modification of M^pro” value was “in no case were substantial amounts of species corresponding to covalent modification observed” and the “species with mass shifts corresponding to potential acyl–enzyme complexes” value is listed as “low levels”.
Regarding `CC1(C)[C@H](C(=O)OCc2ccccc2)N2C(=O)[C@@H](NC(=O)COc3ccccc3)[C@H]2S1(=O)=O` [compound 1, penicillin V sulfone benzyl ester], the results for the IC50 on SARS-CoV-2 M^pro [3] (setting [7]) and on SARS-CoV-2 M^pro [1] (setting [5]) were about 6.6 µM and 2.9 ± 0.4 µM, respectively.
Turning to `CC1(C)[C@H](C(=O)OCc2ccccc2)N2C(=O)[C@](NC(=O)COc3ccccc3)(OCc3ccccc3)[C@H]2S1(=O)=O` [C00008], the IC50 at SARS-CoV-2 M^pro [1] (setting [5]) came out at 8.3 ± 2.6 µM.
Regarding `CC1(C)C(C(=O)OCc2ccccc2)N2C(=O)C(OCc3ccccc3)C2S1(=O)=O` (stereo not shown) [27f], in test [4], the “inhibition of HLE” value is on record as “covalent inhibitors”. Also, the IC50 on SARS-CoV-2 M^pro [1] (setting [5]) worked out at 35 ± 2 µM.
Consider `CC1(C)C(C(=O)OCc2ccccc2)N2C(=O)C(NC(=O)Cc3ccccc3)C2[S+]1[O-]` (stereo not shown) [compound 21], for which the concentration for half-maximal inhibition (IC50) on SARS-CoV-2 M^pro [1] (setting [5]) is over 50 µM.
Same read-out and setting: the same measure for `CCO[C@@]1(NC(=O)COc2ccccc2)C(=O)N2[C@@H](C(=O)OCc3ccccc3)C(C)(C)S(=O)(=O)[C@@H]21` [10a]: 5.8 ± 1.9 µM; for `CC(C)O[C@H]1C(=O)N2[C@@H]1SC(C)(C)[C@@H]2C(=O)OCc1ccccc1` [26c]: 47 ± 13 µM.
In the case of `COC1(NC(=O)Cc2ccccc2)C(=O)N2C1[S+]([O-])C(C)(C)C2C(=O)OCc1ccc([N+](=O)[O-])cc1` (stereo not shown) [compound 2], the IC50 is about 3.5 µM on SARS-CoV-2 M^pro [3] (literature value in Table 2) and 0.5 ± 0.1 µM at SARS-CoV-2 M^pro [1] (setting [5]). The “increase in M^pro inhibition potency compared to (S)-sulfoxide 22” value on SARS-CoV-2 M^pro [1] is recorded as about 9 fold. For the same compound, the “mass shift of M^pro adduct” value is listed as “+32 Da” on SARS-CoV-2 M^pro [2] (5 : 1 inhibitor : M^pro, after 45 min, low levels); “+498 Da” at SARS-CoV-2 M^pro [2] (5 : 1 inhibitor : M^pro, formed within 15 min, increasing intensity); “+515 Da” at SARS-CoV-2 M^pro [2] (5 : 1 inhibitor : M^pro, t = 0 min / initial, weak intensity); “+32 Da” at SARS-CoV-2 M^pro [2] (10:1 inhibitor : M^pro, after 45 min, low intensity); “+498 Da” on SARS-CoV-2 M^pro [2] (10:1 inhibitor : M^pro, increasing intensity over 45 min); “+515 Da” on SARS-CoV-2 M^pro [2] (10:1 inhibitor : M^pro, initial formation). In addition, the “mass shift of concentration-dependent M^pro adduct” value on SARS-CoV-2 M^pro [2] is on record as “+32 Da”. Also, the “covalent reaction with / modification of M^pro” value at SARS-CoV-2 M^pro [2] is on record as “in no case were substantial amounts of species corresponding to covalent modification observed”. For the same compound, the “species with mass shifts corresponding to potential acyl–enzyme complexes” value on SARS-CoV-2 M^pro [2] is recorded as “low levels”.
Regarding `CO[C@@]1(NC(=O)Cc2ccccc2)C(=O)N2[C@@H](C(=O)OCc3ccccc3)C(C)(C)S(=O)(=O)[C@@H]21` [compound 20], the IC50 at SARS-CoV-2 M^pro [1] (setting [5]) was found to be 11 ± 4 µM.
For the compound `CCO[C@H]1C(=O)N2[C@@H](C(=O)OCc3ccccc3)C(C)(C)S(=O)(=O)[C@H]12` [27b], in test [4], the “inhibition of HLE” value is “covalent inhibitors”. Moreover, the IC50 on SARS-CoV-2 M^pro [1] (setting [5]) came to 44 ± 4 µM.
As for `CC1(C)[C@H](C(=O)OCc2ccccc2)N2C(=O)[C@](NC(=O)COc3ccccc3)(O[C@@H]3CCNC3=O)[C@H]2S1(=O)=O` [C00006], at SARS-CoV-2 M^pro [1] (setting [5]), the IC50 is 5.3 ± 1.6 µM.
Take `CC1(C)SC2C(OCc3ccccc3)C(=O)N2C1C(=O)OCc1ccccc1` (stereo not shown) [26f]: on SARS-CoV-2 M^pro [1] (setting [5]), the IC50 worked out at 7.3 ± 1.4 µM.
With `CC1(C)C(C(=O)OCc2ccccc2)N2C(=O)C(NC(=O)COc3ccccc3)C2[S+]1[O-]` (stereo not shown) [compound 6], the IC50 is about 23 µM at SARS-CoV-2 M^pro [3] (setting [7]) and 6.3 ± 1 µM on SARS-CoV-2 M^pro [1] (setting [5]).
Regarding `CC(C)(C)O[C@H]1C(=O)N2[C@@H]1SC(C)(C)[C@@H]2C(=O)OCc1ccccc1` [26d], the IC50 at SARS-CoV-2 M^pro [1] (setting [5]) is 39 ± 9 µM.
On the same count and under the same terms, with `CC1(C)SC2C(Oc3ccccc3)C(=O)N2C1C(=O)OCc1ccccc1` (stereo not shown) [26e] the figure was over 50 µM.
For the compound `CC(C)(C)O[C@H]1C(=O)N2[C@@H](C(=O)OCc3ccccc3)C(C)(C)S(=O)(=O)[C@H]12` [27d], the IC50 on SARS-CoV-2 M^pro [1] (setting [5]) stood at 21 ± 3 µM.
For `COC1(NC(=O)COc2ccccc2)C(=O)N2C1[S+]([O-])C(C)(C)C2C(=O)OCc1ccccc1` (stereo not shown) [compound 7], at SARS-CoV-2 M^pro [1] (setting [5]), the IC50 was ~2.3 µM and 2.3 µM. Also, the “covalent reaction with / modification of M^pro” value at SARS-CoV-2 M^pro [2] is given as “in no case were substantial amounts of species corresponding to covalent modification observed; also recorded: low levels of reaction”.
As to `CO[C@@]1(NC(=O)Cc2ccccc2)C(=O)N2[C@@H](C(=O)O)C(C)(C)S[C@@H]21` [compound 24, C6-methoxypenicillin G acid], at SARS-CoV-2 M^pro [1] (moderate inhibition potency observed in some cases (variable values, possible instability in DMSO), read-out: IC50), the IC50 was found to be 15 ± 8 µM.
As to `CC1(C)S[C@@H]2[C@H](NC(=O)Cc3ccccc3)C(=O)N2[C@H]1C(=O)O` [C00011, reference compound], the IC50 on SARS-CoV-2 M^pro [3] (literature value in Table 2) and at SARS-CoV-2 M^pro [1] (setting [8]) was over 50 µM throughout.
With `CCO[C@H]1C(=O)N2[C@@H]1SC(C)(C)[C@@H]2C(=O)OCc1ccccc1` [26b], at SARS-CoV-2 M^pro [1] (setting [5]), the IC50 was 0.8 ± 0.1 µM.
Same read-out and setting: with `CC1(C)S[C@@H]2[C@H](NC(=O)Cc3ccccc3)C(=O)N2[C@H]1C(=O)OCc1ccccc1` [compound 18] the figure was over 50 µM; with `CO[C@@]1(NC(=O)Cc2ccccc2)C(=O)N2[C@@H](C(=O)OCc3ccccc3)C(C)(C)S[C@@H]21` [compound 25], 11 ± 6 µM.
`CO[C@H]1C(=O)N2[C@@H](C(=O)OCc3ccccc3)C(C)(C)S(=O)(=O)[C@H]12` [27a] showed an IC50 against SARS-CoV-2 M^pro [1] (setting [8]) of 7.7 ± 4.9 µM. For the same compound, at SARS-CoV-2 M^pro [2], the “covalent reaction with / modification of M^pro” value is “in no case were substantial amounts of species corresponding to covalent modification observed; also recorded: did not evidence covalent modification”.
In the case of `CC1(C)S[C@@H]2[C@H](NC(=O)COc3ccccc3)C(=O)N2[C@H]1C(=O)OCc1ccccc1` [compound 5], the IC50 at SARS-CoV-2 M^pro [3] (setting [7]) was over 50 µM; at SARS-CoV-2 M^pro [1] (setting [8]), over 50 µM; against SARS-CoV-2 M^pro [1] (setting [6]), “no inhibition in the tested concentration range”.
Consider `CO[C@@]1(NC(=O)COc2ccccc2)C(=O)N2[C@@H](C(=O)OCc3ccccc3)C(C)(C)S(=O)(=O)[C@@H]21` [compound 9], for which the IC50 entry is “inactive” on SARS-CoV-2 M^pro [1] (setting [6]) and over 50 µM at SARS-CoV-2 M^pro [1] (setting [5]). In addition, on SARS-CoV-2 M^pro [2], the “covalent reaction with / modification of M^pro” value is given as “in no case were substantial amounts of species corresponding to covalent modification observed”.
`CO[C@H]1C(=O)N2[C@@H]1SC(C)(C)[C@@H]2C(=O)OCc1ccccc1` [26a]: the concentration for half-maximal inhibition (IC50) at SARS-CoV-2 M^pro [1] (setting [5]) amounted to 1.2 ± 0.1 µM. Moreover, the “covalent reaction with / modification of M^pro” value on SARS-CoV-2 M^pro [2] is listed as “in no case were substantial amounts of species corresponding to covalent modification observed; also recorded: did not evidence covalent modification”.
For the compound `CC1(C)S[C@H]2N(C(=O)[C@]2(NC(=O)COc2ccccc2)OCc2ccccc2)[C@H]1C(=O)OCc1ccccc1` [16c], the IC50 result is “inactive” against SARS-CoV-2 M^pro [1] (setting [6]) and over 50 µM on SARS-CoV-2 M^pro [1] (setting [5]).
For `CC1(C)[C@H](C(=O)OCc2ccccc2)N2C(=O)[C@@H](NC(=O)Cc3ccccc3)[C@H]2S1(=O)=O` [compound 19], the IC50 at SARS-CoV-2 M^pro [1] (setting [5]) was over 50 µM.
On the same count and under the same terms, the same measure for `CC1(C)[C@H](C(=O)OCc2ccccc2)N2C(=O)[C@@H](NC(=O)Cc3ccccc3)[C@H]2[S@+]1[O-]` [compound 23]: over 50 µM.
